Reference: the supplement of paper PMC11061612

Legend:
Assay in all cases: combination Emax (second highest fraction inhibited in the dose matrix, 72 h); higher = more inhibition; extreme values may be limits of the assay
[1] = system: A549 (Lung Adenocarcinoma)
How it was run: (§1)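 After 24 hours at 37°C and 5% CO2 in 1536-well plates, cells in DMEM/F12 or RPMI plus 10% FBS received two-drug dose matrices for 72 hours. Viability came from CellTiter-Glo 2.0 luminescence and was scaled as inhibition, anchored at 0 by vehicle wells and at 1 by blank wells. Combination Emax is taken as the second-highest inhibition in the matrix, and Bliss excess as the observed combination effect less EA + EB − EA·EB, with EA and EB the single-agent effects.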

[2] = system: CAL-29 (Bladder Carcinoma)
How it was run: as §1

[3] = system: CAPAN-2 (Pancreatic Carcinoma)
How it was run: as §1

CAS-1 (Glioblastoma) = system: CAS-1 (Glioblastoma)
How it was run: as §1

[4] = system: CCK-81 (Colorectal Carcinoma)
How it was run: as §1

[5] = system: COLO-824 (Breast Carcinoma)
How it was run: as §1

GI-ME-N (Neuroblastoma) = system: GI-ME-N (Neuroblastoma)
How it was run: as §1

[6] = system: JSC-1 (B-Cell Non-Hodgkin's Lymphoma)
How it was run: as §1

LN-405 (Glioblastoma) = system: LN-405 (Glioblastoma)
How it was run: as §1

[7] = system: NCI-H1581 (Non-Small Cell Lung Carcinoma)
How it was run: as §1

[8] = system: NCI-H1650 (Lung Adenocarcinoma)
How it was run: as §1

NY (Osteosarcoma) = system: NY (Osteosarcoma)
How it was run: as §1

[9] = system: ONS-76 (Other Solid Carcinomas)
How it was run: as §1

[10] = system: OS-RC-2 (Kidney Carcinoma)
How it was run: as §1

PA-1 (Ovarian Carcinoma) = system: PA-1 (Ovarian Carcinoma)
How it was run: as §1

[11] = system: SISO (Cervical Carcinoma)
How it was run: as §1

[12] = system: SK-MG-1 (Low Grade Glioma)
How it was run: as §1

[13] = system: TT (Thyroid Gland Carcinoma)
How it was run: as §1

U-2-OS (Osteosarcoma) = system: U-2-OS (Osteosarcoma)
How it was run: as §1

[14] = system: VCaP (Prostate Carcinoma)
How it was run: as §1

Row | SMILES | combination Emax [1] | combination Emax [2] | combination Emax [3] | combination Emax (CAS-1 (Glioblastoma)) | combination Emax [4] | combination Emax [5] | combination Emax (GI-ME-N (Neuroblastoma)) | combination Emax [6] | combination Emax (LN-405 (Glioblastoma)) | combination Emax [7] | combination Emax [8] | combination Emax (NY (Osteosarcoma)) | combination Emax [9] | combination Emax [10] | combination Emax (PA-1 (Ovarian Carcinoma)) | combination Emax [11] | combination Emax [12] | combination Emax [13] | combination Emax (U-2-OS (Osteosarcoma)) | combination Emax [14]
1 | CN(CCO)CC[C@H](CSc1ccccc1)Nc1ccc(S(=O)(=O)NC(=O)c2ccc(N3CCC([C@@H](O)c4ccccc4-c4ccc(Cl)cc4)CC3)cc2)cc1S(=O)(=O)C(F)(F)F [AZD4320] + CCN(CCO)CCCOc1ccc2c(Nc3cc(CC(=O)Nc4cccc(F)c4)[nH]n3)ncnc2c1 [AZD2811] (first compound max 1 µM, 7x7, partner max 1 µM) | 0.446 | 0.545 | 0.776 | 0.417 | 0.178 | 1 | 0.19 | 0.341 | 0.363 | 0.445 | 0.254 | 0.121 | 0.589 | 0.159 | 0.773 | 0.401 | 0.731 | 0.615 | 0.389 | 0.194
2 | CC1(C)CCC(CN2CCN(c3ccc(C(=O)NS(=O)(=O)c4ccc(NCC5CCOCC5)c([N+](=O)[O-])c4)c(Oc4cnc5[nH]ccc5c4)c3)CC2)=C(c2ccc(Cl)cc2)C1 [Venetoclax] + C1CN(CCC1(C(=O)N[C@@H](CCO)C2=CC=C(C=C2)Cl)N)C3=NC=NC4=C3C=CN4 [Capivasertib] (first compound max 1 µM, 7x7, partner max 3 µM) | 0.36 | 0.277 | 0.154 | 0.407 | 0.156 | 0.881 | 0.24 | 0.161 | 0.429 | 0.0621 | 0.164 | 0.583 | 0.761 | 0.354 | 0.636 | 0.106 | 0.437 | 0.681 | 0.263 | 0.398
3 | C[C@@H](c1ccc2nccn2c1)n1nnc2ncc(-c3cnn(C)c3)nc21 [Savolitinib] + CC1(C)CCC(CN2CCN(c3ccc(C(=O)NS(=O)(=O)c4ccc(NCC5CCOCC5)c([N+](=O)[O-])c4)c(Oc4cnc5[nH]ccc5c4)c3)CC2)=C(c2ccc(Cl)cc2)C1 [Venetoclax] (first compound max 1 µM, 7x7, partner max 1 µM) | 0.142 | 0.0725 | 0.0542 | 0.212 | 0.1 | 0.61 | 0.17 | 0.115 | 0.173 | 0.135 | 0.127 | 0.246 | 0.118 | 0.145 | 0.276 | 0.0509 | 0.11 | 0.173 | 0.125 | 0.115
4 | CC1(C)CCC(CN2CCN(c3ccc(C(=O)NS(=O)(=O)c4ccc(NCC5CCOCC5)c([N+](=O)[O-])c4)c(Oc4cnc5[nH]ccc5c4)c3)CC2)=C(c2ccc(Cl)cc2)C1 [Venetoclax] + C=CCn1c(=O)c2cnc(Nc3ccc(N4CCN(C)CC4)cc3)nc2n1-c1cccc(C(C)(C)O)n1 [AZD1775] (first compound max 1 µM, partner max 1 µM) | 0.406 | 0.483 | 0.453 | 0.615 | 0.784 | 0.967 | 0.272 | 0.888 | 0.326 | 0.32 | 0.433 | 0.741 | 0.781 | 0.326 | 0.847 | 0.694 | 0.625 | 0.673 | 0.679 | 0.668
5 | Cc1cc2ncnn2cc1Nc1ncc2c(n1)n(C1CCOCC1)c(=O)n2C [AZD7648] + C=CCn1c(=O)c2cnc(Nc3ccc(N4CCN(C)CC4)cc3)nc2n1-c1cccc(C(C)(C)O)n1 [AZD1775] (first compound max 10 µM, partner max 1 µM) | 0.578 | 0.618 | 0.485 | 0.566 | 0.833 | 0.658 | 0.393 | 0.931 | 0.281 | 0.379 | 0.417 | 0.548 | 0.589 | 0.419 | 0.706 | 0.577 | 0.594 | 0.475 | 0.614 | 0.533
6 | NC1(C(=O)N[C@@H](CCO)c2ccc(Cl)cc2)CCN(c2ncnc3[nH]ccc23)CC1 [Capivasertib] + Cn1cnc2c(F)c(Nc3ccc(Br)cc3Cl)c(C(=O)NOCCO)cc21 [Selumetinib] (first compound max 10 µM, 7x7, partner max 10 µM) | 0.922 | 0.66 | 0.504 | 0.682 | 0.737 | 0.595 | 0.377 | 0.724 | 0.539 | 0.513 | 0.358 | 0.305 | 0.873 | 0.439 | 0.884 | 0.269 | 0.681 | 0.587 | 0.892 | 0.487
7 | CN(CCO)CC[C@H](CSc1ccccc1)Nc1ccc(S(=O)(=O)NC(=O)c2ccc(N3CCC([C@@H](O)c4ccccc4-c4ccc(Cl)cc4)CC3)cc2)cc1S(=O)(=O)C(F)(F)F [AZD4320] + Cc1cc2ncnn2cc1Nc1ncc2c(n1)n(C1CCOCC1)c(=O)n2C [AZD7648] (first compound max 1 µM, 7x7, partner max 10 µM) | 0.369 | 0.21 | 0.653 | 0.171 | 0.111 | 1 | 0.153 | 0.246 | 0.36 | 0.271 | 0.245 | 0.156 | 0.173 | 0.119 | 0.61 | 0.0433 | 0.295 | 0.209 | 0.238 | 0.165
8 | Cc1cc2ncnn2cc1Nc1ncc2c(n1)n(C1CCOCC1)c(=O)n2C [AZD7648] + O=C(c1cc(Cc2n[nH]c(=O)c3ccccc23)ccc1F)N1CCN(C(=O)C2CC2)CC1 [Olaparib] (first compound max 10 µM, 7x7, partner max 10 µM) | 0.59 | 0.384 | 0.0547 | 0.271 | 0.162 | 0.279 | 0.141 | 0.0503 | 0.183 | 0.168 | 0.0772 | 0.14 | 0.246 | 0.224 | 0.374 | 0.207 | 0.238 | 0.161 | 0.118 | 0.141
9 | Cn1cnc2c(F)c(Nc3ccc(Br)cc3Cl)c(C(=O)NOCCO)cc21 [Selumetinib] + CCN(CCO)CCCOc1ccc2c(Nc3cc(CC(=O)Nc4cccc(F)c4)[nH]n3)ncnc2c1 [AZD2811] (first compound max 10 µM, 7x7, partner max 1 µM) | 0.807 | 0.389 | 0.407 | 0.277 | 0.372 | 0.825 | 0.213 | 0.682 | 0.242 | 0.487 | 0.213 | 0.247 | 0.728 | 0.225 | 0.654 | 0.338 | 0.288 | 0.453 | 0.661 | 0.211
10 | COc1cc2ncnc(Nc3ccc(F)c(Cl)c3)c2cc1OCCCN1CCOCC1 [Gefitinib] + CC(C)n1c(=O)n(C)c2cnc3cc(F)c(-c4ccc(OCCCN5CCCCC5)nc4)cc3c21 [AZD1390] (first compound max 10 µM, 7x7, partner max 0.3 µM) | 0.435 | 0.228 | 0.148 | 0.134 | 0.661 | 0.366 | 0.0541 | 0.249 | 0.104 | 0.0926 | 0.236 | 0.239 | 0.11 | 0.145 | 0.351 | 0.0311 | 0.072 | 0.118 | 0.0294 | 0.0675
11 | Cc1nc(Nc2ncc(C(=O)Nc3c(C)cccc3Cl)s2)cc(N2CCN(CCO)CC2)n1 [Dasatinib] + CC(=O)Nc1cccc(-n2c(=O)n(C3CC3)c(=O)c3c(Nc4ccc(I)cc4F)n(C)c(=O)c(C)c32)c1 [Trametinib] (first compound max 2 µM, 7x7, partner max 1 µM) | 0.97 | 0.625 | 0.892 | 0.946 | 0.641 | 0.232 | 0.49 | 0.543 | 0.468 | 0.552 | 0.419 | 0.738 | 0.888 | 0.353 | 0.936 | 0.157 | 0.65 | 0.441 | 0.9 | 0.0632
12 | C=CCn1c(=O)c2cnc(Nc3ccc(N4CCN(C)CC4)cc3)nc2n1-c1cccc(C(C)(C)O)n1 [AZD1775] + C1CN(CCC1(C(=O)N[C@@H](CCO)C2=CC=C(C=C2)Cl)N)C3=NC=NC4=C3C=CN4 [Capivasertib] (first compound max 3 µM, partner max 3 µM) | 0.664 | 0.839 | 0.513 | 0.709 | 0.85 | 0.79 | 0.451 | 0.911 | 0.49 | 0.857 | 0.61 | 0.737 | 0.76 | 0.406 | 0.866 | 0.731 | 0.591 | 0.264 | 0.665 | 0.647
